Measurements from US7229990B2, “Bicyclic heteroaromatic compounds” (N.V. Organon, priority 2000, dated 2007).
Where two headings read alike, the source gives them in different places.

Target: T1, human LH receptor (Homo sapiens, UniProt P22888)
T1 construct: expressed in transfected cells; host or cells: Chinese Hamster Ovary (CHO) cells, stably transfected; cotransfected with a CRE-luciferase reporter
Assay: CHO-LH in vitro bioactivity (CRE-luciferase reporter, LH agonistic activity)
Format: cell-based
Protocol: LH agonistic activity of compounds was tested in Chinese Hamster Ovary (CHO) cells stably transfected with the human LH receptor and cotransfected with a cAMP responsive, element (CRE)/promotor directing the expression of a firefly luciferase reporter gene. Binding of ligand to the Gs-coupled LH receptor will result in an increase of cAMP, which in turn will induce an increased transactivation of the luciferase reporter construct. The luciferase signal was quantified using a luminescence counter. For test compounds, EC50 values (concentration of test compound causing half-maximal (50%) stimulation) were calculated. For that purpose the software program GraphPad PRISM, version 3.0 (GraphPad software Inc., San Diego) was used.

[1] = CHO cells stably transfected with the human LH receptor and cotransfected with CRE/promotor firefly luciferase reporter, luciferase signal, read-out: EC50 value (concentration of test compound causing half-maximal (50%) stimulation)

T1 sequence (P22888 27-699): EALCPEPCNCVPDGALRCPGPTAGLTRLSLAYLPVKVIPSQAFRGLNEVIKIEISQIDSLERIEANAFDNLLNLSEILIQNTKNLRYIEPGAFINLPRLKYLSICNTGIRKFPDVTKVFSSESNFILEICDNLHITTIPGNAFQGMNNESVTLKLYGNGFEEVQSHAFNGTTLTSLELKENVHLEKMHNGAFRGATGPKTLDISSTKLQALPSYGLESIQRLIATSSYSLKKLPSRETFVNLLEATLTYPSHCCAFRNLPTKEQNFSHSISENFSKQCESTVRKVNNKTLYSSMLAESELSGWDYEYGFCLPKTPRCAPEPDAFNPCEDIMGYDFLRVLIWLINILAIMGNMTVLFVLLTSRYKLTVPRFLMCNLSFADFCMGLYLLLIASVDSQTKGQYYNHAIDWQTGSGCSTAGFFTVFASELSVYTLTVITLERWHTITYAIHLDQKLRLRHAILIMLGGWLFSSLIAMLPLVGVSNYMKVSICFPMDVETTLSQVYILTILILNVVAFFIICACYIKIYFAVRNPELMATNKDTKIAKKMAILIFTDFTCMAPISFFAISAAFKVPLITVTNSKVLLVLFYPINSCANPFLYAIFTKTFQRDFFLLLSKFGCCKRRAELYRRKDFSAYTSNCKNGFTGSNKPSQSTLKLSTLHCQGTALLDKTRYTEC

Row | Structure (SMILES) | EC50 [1] | EC50
1 | CSc1nc(-c2cccc(NC(=O)N3CC=CCC3)c2)c2c(N)c(C(=O)NC(C)(C)C)sc2n1 [Example 23, tert-Butyl 5-amino-2-methylthio-4-(3-(1,2,3,6-tetrahydropyridinocarbonylamino)-phenyl)-thieno[2,3-d]pyrimidine-6-carboxamide] | < 10 nM | –
2 | CCN(CC)C(=O)Oc1cccc(-c2nc(SC)nc3sc(C(=O)NC(C)(C)C)c(N)c23)c1 [Example 7] | – | < 10 nM
3 | CSc1nc(-c2cccc(NC(=O)N3CCOCC3)c2)c2c(N)c(C(=O)NC(C)(C)C)sc2n1 [Example 21] | < 10 nM | –
4 | COC(=O)Nc1cccc(-c2nc(SC)nc3sc(C(=O)NC(C)(C)C)c(N)c23)c1 [Example 15, tert-Butyl 5-amino-2-methylthio-4-(3-(methoxycarbonylamino)-phenyl)-thieno[2,3-]pyrimidine-6-carboxamide] | < 10 nM | –
5 | CN(C)C(=O)Nc1cccc(-c2nc(-c3ccccc3)nc3sc(C(=O)NC(C)(C)C)c(N)c23)c1 [Example 32, tert-Butyl 5-amino-2-phenyl-4-(3-((N,N-dimethylamino)-carbonylamino)-phenyl)-thieno[2,3-d]pyrimidine-6-carboxamide] | < 10 nM | –

More lines, main results first:

Row | EC50 [1] | Structure (SMILES) | EC50
6 | < 10 nM | CCOC(=O)Nc1cccc(-c2nc(SC)nc3sc(C(=O)NC(C)(C)C)c(N)c23)c1 [Example 18, tert-Butyl 5-amino-2-methylthio-4-(3-(ethoxycarbonylamino)-phenyl)-thieno[2,3-d]pyrimidine-6-carboxamide] | –
7 | < 10 nM | C=CCOC(=O)Nc1cccc(-c2nc(SC)nc3sc(C(=O)NC(C)(C)C)c(N)c23)c1 [Example 16, tert-Butyl 5-amino-2-methylthio-4-(3-(allyloxycarbonylamino)-phenyl)-thieno[2,3-d]pyrimidine-6-carboxamide] | –
